Test [1] has as its target T1, Tyrosine-protein phosphatase non-receptor type 11 (Homo sapiens, UniProt Q06124).
T1 sequence (Q06124 whole entry): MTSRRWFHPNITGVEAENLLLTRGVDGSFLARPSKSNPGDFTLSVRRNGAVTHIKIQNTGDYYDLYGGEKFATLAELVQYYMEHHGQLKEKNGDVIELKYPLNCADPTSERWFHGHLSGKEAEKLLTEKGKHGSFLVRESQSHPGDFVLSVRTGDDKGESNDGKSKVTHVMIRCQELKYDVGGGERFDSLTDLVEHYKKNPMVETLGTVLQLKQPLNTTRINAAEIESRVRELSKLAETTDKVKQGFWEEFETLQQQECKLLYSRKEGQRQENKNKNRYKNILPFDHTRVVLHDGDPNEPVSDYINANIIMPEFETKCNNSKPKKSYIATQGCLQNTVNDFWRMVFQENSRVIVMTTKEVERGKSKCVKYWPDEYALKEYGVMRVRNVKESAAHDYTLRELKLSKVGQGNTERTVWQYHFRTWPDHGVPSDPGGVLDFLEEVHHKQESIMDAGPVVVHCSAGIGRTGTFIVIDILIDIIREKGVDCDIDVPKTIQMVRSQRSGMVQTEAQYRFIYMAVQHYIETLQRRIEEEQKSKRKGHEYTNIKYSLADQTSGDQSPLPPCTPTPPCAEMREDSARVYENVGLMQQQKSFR
Description: Inhibition of human His6-tagged wild type SHP2 PTP domain using pNPP as substrate by absorbance based analysis.

Test [2] has as its target T1, Tyrosine-protein phosphatase non-receptor type 11. Description: Inhibition of human SHP2 (225 to 541 residues) using pNPP as substrate by microplate reader based analysis.
In test [3] the target is Tyrosine-protein phosphatase non-receptor type 11 (Homo sapiens) (UniProt Q06124). Description: Inhibition of SHP2 (unknown origin) at 100 ug/ml. The note with it: dose 100.0 µg/ml.
Test [4] concerns the target T1, Tyrosine-protein phosphatase non-receptor type 11. Description: Binding affinity to SHP2 (unknown origin) assessed as inhibition constant.
The target of test [5] is T2, Receptor-type tyrosine-protein phosphatase O (Homo sapiens, UniProt Q16827).
T2 sequence (Q16827 whole entry): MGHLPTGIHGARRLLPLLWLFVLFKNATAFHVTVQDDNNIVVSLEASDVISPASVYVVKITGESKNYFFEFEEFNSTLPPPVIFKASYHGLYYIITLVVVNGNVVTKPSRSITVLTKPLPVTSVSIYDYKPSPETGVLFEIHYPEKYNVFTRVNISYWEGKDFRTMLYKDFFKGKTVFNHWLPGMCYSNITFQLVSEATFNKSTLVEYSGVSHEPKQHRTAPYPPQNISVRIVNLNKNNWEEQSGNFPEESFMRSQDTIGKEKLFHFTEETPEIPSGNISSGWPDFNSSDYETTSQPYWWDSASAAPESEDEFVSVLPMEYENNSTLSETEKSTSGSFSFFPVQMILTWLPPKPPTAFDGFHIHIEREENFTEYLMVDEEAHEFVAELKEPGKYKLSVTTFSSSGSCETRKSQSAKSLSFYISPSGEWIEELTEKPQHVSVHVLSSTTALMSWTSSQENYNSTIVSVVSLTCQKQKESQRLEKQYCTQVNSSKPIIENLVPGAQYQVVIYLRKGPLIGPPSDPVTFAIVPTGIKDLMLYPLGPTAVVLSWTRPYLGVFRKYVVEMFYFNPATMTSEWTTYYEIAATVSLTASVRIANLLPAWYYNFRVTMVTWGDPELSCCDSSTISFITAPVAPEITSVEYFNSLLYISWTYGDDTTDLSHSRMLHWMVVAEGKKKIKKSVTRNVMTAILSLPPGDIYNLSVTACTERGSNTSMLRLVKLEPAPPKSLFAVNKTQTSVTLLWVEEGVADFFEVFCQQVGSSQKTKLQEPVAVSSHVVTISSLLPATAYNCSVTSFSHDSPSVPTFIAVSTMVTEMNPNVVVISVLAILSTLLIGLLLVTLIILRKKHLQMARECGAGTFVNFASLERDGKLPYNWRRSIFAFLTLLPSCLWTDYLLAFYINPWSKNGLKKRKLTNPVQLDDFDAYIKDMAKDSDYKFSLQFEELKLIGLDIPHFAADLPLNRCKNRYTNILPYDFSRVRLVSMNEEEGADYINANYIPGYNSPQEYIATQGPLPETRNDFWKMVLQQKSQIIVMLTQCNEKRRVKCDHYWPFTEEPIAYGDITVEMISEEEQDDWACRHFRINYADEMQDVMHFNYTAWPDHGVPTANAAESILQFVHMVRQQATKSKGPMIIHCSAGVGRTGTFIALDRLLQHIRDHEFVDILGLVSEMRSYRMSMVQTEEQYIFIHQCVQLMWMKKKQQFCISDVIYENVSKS
Description: Binding affinity to GLEPP1 (unknown origin) assessed as inhibition constant.

The target of test [6] is T1, Tyrosine-protein phosphatase non-receptor type 11. Description: Inhibition of GST fused SHP2 PTP domain (unknown origin) using Thr-Arg-Asp-Ile-Tyr[PO3H2]-Glu-Thr-Asp-Tyr-Tyr as substrate incubated for 30 mins by malachite green staining based analysis.
For test [7] the target is unchanged. Description: Inhibition of SHP2 (unknown origin).
Test [8] has the same target. Description: Inhibition of SHP2 (unknown origin) using pNPP as substrate by spectrophotometer analysis.
For test [9] the target is unchanged. Description: Inhibition of GST fused SHP2 PTP domain (unknown origin) using EFpYAEVGRSPPDPAK peptide as substrate incubated for 30 mins by malachite green staining based analysis.
The target in test [10] is Tyrosine-protein phosphatase non-receptor type 6 (Homo sapiens, UniProt P29350). Description: Inhibition of SHP1 (unknown origin).
The next test deals with BaF3. Description: Antiproliferative activity against mouse BaF3 cells assessed as cell growth inhibition measured after 48 hrs by MTS assay. Type of test: functional, cell-based. The note with it: BaF3, 48 h. On the technique in general: Tetrazolium dyes change colour on reduction, which living cells bring about.

One may read the IC50 as the concentration that inhibits the measured activity by half. By inhibition is commonly meant how much of the control response was suppressed. High values mean strong suppression, low ones little suppression. A word on the Ki: it is the dissociation constant of the complex between target and ligand, obtained from inhibition or displacement.

Some results are limits rather than exact numbers.

Tyrosine-protein phosphatase non-receptor type 6, sequence (P29350 whole entry): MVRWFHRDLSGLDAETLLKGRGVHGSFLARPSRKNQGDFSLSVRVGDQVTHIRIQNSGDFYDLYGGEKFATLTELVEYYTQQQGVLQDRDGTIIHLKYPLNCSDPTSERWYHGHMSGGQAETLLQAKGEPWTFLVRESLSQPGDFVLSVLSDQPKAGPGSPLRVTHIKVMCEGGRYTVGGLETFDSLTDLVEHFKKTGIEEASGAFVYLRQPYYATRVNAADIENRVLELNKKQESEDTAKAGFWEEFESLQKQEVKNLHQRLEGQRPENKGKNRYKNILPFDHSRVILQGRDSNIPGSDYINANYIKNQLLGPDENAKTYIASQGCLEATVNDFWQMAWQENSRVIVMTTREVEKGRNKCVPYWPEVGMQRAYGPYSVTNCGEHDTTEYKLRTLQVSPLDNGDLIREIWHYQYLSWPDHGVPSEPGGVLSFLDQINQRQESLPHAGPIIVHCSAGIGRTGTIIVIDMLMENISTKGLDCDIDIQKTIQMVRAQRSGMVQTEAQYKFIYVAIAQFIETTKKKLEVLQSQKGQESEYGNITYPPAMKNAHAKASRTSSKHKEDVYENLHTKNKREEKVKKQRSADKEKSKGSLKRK

`C=CC(=O)Nc1ccnc2ccccc12` had an IC50 in test [1] of 35 µM.

On to `CCOC(=O)c1ccc(N2N=C(c3ccc([N+](=O)[O-])cc3)/C(=N/Nc3ccc(S(=O)(=O)O)cc3)C2=O)cc1`, for which, in test [2], half-maximal inhibition (IC50) required 0.63 µM.

Consider “(3R,4S,5R)-1-(((3S,4R,5R)-3-(carboxymethyl)-1-hydroxy-5-((R)-1-hydroxypropan-2-yl)-2,6,7-trioxa-1l5-stibabicyclo[2.2.1]heptan-1-yl)oxy)-5-((R)-1,2-dihydroxyethyl)-1-hydroxy-2,6,7-trioxa-1l5-stibabicyclo[2.2.1]heptane-3-carboxylic acid”, for which, in test [3], the inhibition was 99%.

Take `CCCCCCN(Cc1ccc(C#Cc2ccc(CCCC)cc2)cc1)c1ccc(O)c(C(=O)O)c1`: the Ki in test [4] was found to be 0.652 µM; in [5], 0.123 µM.

Consider `Cc1cc(C)c2c(c1)[nH]c1nnc(SCC(=O)NCc3cccs3)nc12`, for which the IC50 in test [6] amounted to 13.9 µM.

Turning to `COc1cccc(-c2nnc3n(Cc4ccc(C(=O)N5CCC[C@H]5C(=O)O)cc4Cl)c(=O)c4ccccc4n23)c1O`, the IC50 in test [7] was determined as 18.9 µM.

`C=C/C(=C/C(=O)C[C@H](C)C[C@@H](C)CC[C@H](O)[C@H](C)C(=O)C[C@@H](O)[C@H](C)[C@@H](C)OC(=O)C[C@@H](O)/C(C(=O)O)=C(\C)C(=O)O)CC`: in test [8], it took 2.9 µM to reach half-maximal inhibition (IC50).

In turn, `O=C(O)c1ccc(O)c(-c2nnc3n(Cc4ccccc4Cl)c(=O)c4ccccc4n23)c1` came in with an IC50 in [7] of 21 µM.

On to `O=C(CCn1cnc2sc3c(c2c1=O)CCCCC3)Nc1ccccc1[N+](=O)[O-]`, for which the IC50 in test [9] was 9.97 µM; in test [10] it was above 100 µM; with BaF3, 10.7 µM.

In test [7], `O=C1C=CC(=O)C(c2cc(Cl)ccc2Cl)=C1` showed an IC50 of 0.4 µM.
